Like-named read-outs stand apart in the source and are kept apart here.
Columns and labels:
[1] = target: T1, human serum albumin (HSA) (Homo sapiens, UniProt P02768); experiment: HSA binding, steady-state fluorescence quenching; settings: for KSV Stern-Volmer quenching constant: PBS pH 7.4
T1 construct: purchased Sigma Aldrich, St. Louis, MO, USA
Description: The chemicals HSA and PBS buffer were purchased from Sigma Aldrich, St. Louis, MO, USA and the pH of buffer solution was checked (pH = 7.40). Jasco J-815 optical spectrometer (Jasco Easton, MD, USA) was used as equipment for steady-state fluorescence and circular dichroism (CD) spectra measurements and a thermostatic cuvette holder Jasco PFD-425S15F (Jasco Easton, MD, USA) was applied for control of temperature in the quartz cell (1.0 cm optical path). All spectra were recorded as the average of three scans with appropriate background corrections. For steady-state fluorescence measurements it was applied 305–450 nm range as emission wavelength (λexc = 295 nm) at 289K, 296K, 303K and 310K. First, it was recorded spectra for HSA solution (1.00 × 10^−5 M, in PBS) and then it was added manually the compound 5e, achieving final ligand concentrations of 0.35; 0.70; 1.05; 1.40; 1.74; 2.09; 2.44; and 2.78 × 10^−5 M.
In order to delete the possible absorption contribution of the compound 5e in the steady-state fluorescence results, inner filter effect was applied, according to the Equation 2 [33]:(2) Fcor=FObs10^[Aex+Aem/2] where Fcor and Fobs are the corrected and observed fluorescence intensity values, while Aex and Aem represent the absorbance value at the excitation (λ = 295 nm: ε = 6,235 cm^−1M^−1 in PBS) and emission wavelengths (λ = 340 nm: ε = 4,550 cm^−1M^−1 in PBS).
The steady-state fluorescence results for the interaction HSA:5e were analyzed according to Stern-Volmer (Equation 3), double logarithmic (Equation 4), van’t Hoff (Equation 5) and Gibbs’ free energy (Equation 6) approximations:(3) F0/F=1+Ksv[Q]=1+kqτ0[Q] (4) log(F0−F/F)=logKa+nlog[Q] (5) lnKa=−ΔH°/RT+ΔS°/R (6) ΔG°=ΔH°−TΔS° where F0 and F are the steady-state fluorescence intensities of HSA in the absence and presence of 5e, respectively. [Q], KSV and kq are the 5e concentration, Stern-Volmer quenching constant and bimolecular quenching rate constant, respectively. τ0 is the experimental fluorescence lifetime of HSA in the absence 5e (5.98 ± 0.15) × 10^−9 s. Ka and ƒ are the binding constant and fraction of the initial fluorescence intensity corresponding to the fluorophore which is accessible by the quencher (f ≈ 1.00), respectively. ΔH°, ΔS° and ΔG° are the enthalpy, entropy and Gibbs’ free energy change, respectively. T and R are the temperature (289 K, 296 K, 303 K and 310 K) and gas constant (8.3145 Jmol^−1K^−1), respectively. All quantitative values were expressed as “± SD” (obtained through three scans).

[2] = system: L. amazonensis promastigotes; experiment: Promastigote assay (MTT); type: cell-based, Leishmania amazonensis; settings: Leishmania amazonensis, after 48 h of culture (table title)
Description: Leishmania amazonensis (MHOM/BR/77/LTB0016) were regularly isolated from infected mice and maintained in culture as promastigotes through weekly passages in Schneider’s medium (Sigma Aldrich, St. Louis, MO, USA) supplemented with 10% (v/v) heat-inactivated fetal calf serum, penicillin (100 UI/mL), and streptomycin (100 µg/mL) at 299K. Parasites were maintained until the 10th passage. The Animal Ethics Committee of the Oswaldo Cruz Foundation (license number L026/2015) approved this study.
Promastigotes of L. amazonensis (1 × 10^6 promastigotes/mL) in the 4th day on culture in the conditions described above were incubated with the chalcones serially diluted in culture medium (0.032% v/v DMSO at the highest concentration tested) on a 96-well cell culture plate (TPP™ test plate, Switzerland). The assayed concentrations ranged from 50 to 1.56 µM for all chalcone-thiosemicarbazones (5a–g) and for pentamidine (Sigma Aldrich, St. Louis, MO, USA). […] All compounds were analyzed in at least three experiments performed in triplicate. Pentamidine was used as the reference drug and diluted in the same concentrations used for 5a–g. The vehicle (DMSO) had no effect on the parasites.
The antileishmanial activity was evaluated by adding 22 µL of 3-(4,5-dimethylthiazol-2-yl)-2-5diphenyltetrazolium bromide (MTT) at 5 mg/mL (Sigma Aldrich, St. Louis, MO, USA) to each well. After 2 h, 80 µL of DMSO was added and the optical density was determined at a wavelength of 570 nm in a microplate reader (µQuant Bio-Tek Instruments®, Winooski). The assays were carried out in triplicate in 96-well plates (Costar, New York, USA). The inhibition percentage was estimated by the comparison with the non-treated control. The values for the inhibitory concentration for 50% of the promastigotes (IC50) were calculated by a sigmoidal model.

T1 sequence (P02768 25-609): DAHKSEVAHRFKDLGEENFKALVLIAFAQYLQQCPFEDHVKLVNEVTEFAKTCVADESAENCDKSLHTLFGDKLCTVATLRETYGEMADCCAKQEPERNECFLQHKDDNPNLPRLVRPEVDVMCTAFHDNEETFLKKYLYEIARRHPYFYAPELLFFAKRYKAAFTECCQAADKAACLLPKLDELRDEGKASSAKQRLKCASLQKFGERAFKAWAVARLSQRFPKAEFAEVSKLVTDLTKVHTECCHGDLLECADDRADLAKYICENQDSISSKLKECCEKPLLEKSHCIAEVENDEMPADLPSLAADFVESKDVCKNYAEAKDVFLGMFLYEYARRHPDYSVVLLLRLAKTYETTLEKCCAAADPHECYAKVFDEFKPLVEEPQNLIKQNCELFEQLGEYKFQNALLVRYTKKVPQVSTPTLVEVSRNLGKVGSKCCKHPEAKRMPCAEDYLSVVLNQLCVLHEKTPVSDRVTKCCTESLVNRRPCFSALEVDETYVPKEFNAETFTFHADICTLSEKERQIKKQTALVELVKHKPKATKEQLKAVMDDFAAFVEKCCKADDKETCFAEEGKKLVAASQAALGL

SMILES: NC(=S)N/N=C(\C=C\c1ccc(Cl)cc1)c1ccccc1 [Compound 5e, (1E,2E)-3-(4′-chlorophenyl)-1-phenylprop-2-en-1-one thiosemicarbazone]
- n number of binding sites [1]: ~ 1
- kq bimolecular quenching rate constant ([1]; 289 K): 4.15e+12 M⁻¹ s⁻¹
- n number of binding sites ([1]; 289 K): 1.05 ± 0.01
- ΔG° Gibbs' free energy change ([1]; 289 K): −26.1 kJmol^−1
- KSV Stern-Volmer quenching constant ([1]; 289 K): 2.48 ± 0.52 ×10^4 M^−1
- Kd ([1]; 289 K, double logarithmic approximation, read-out: Ka binding constant (converted)): 19.4 µM
- kq bimolecular quenching rate constant ([1]; 296 K): 4.16e+12 M⁻¹ s⁻¹
- n number of binding sites ([1]; 296 K): 1.07 ± 0.01
- ΔG° Gibbs' free energy change ([1]; 296 K): −26.6 kJmol^−1
- KSV Stern-Volmer quenching constant ([1]; 296 K): 2.49 ± 0.50 ×10^4 M^−1
- Kd ([1]; 296 K, double logarithmic approximation, read-out: Ka binding constant (converted)): 20.6 µM
- kq bimolecular quenching rate constant ([1]; 303 K): 4.34e+12 M⁻¹ s⁻¹
- n number of binding sites ([1]; 303 K): 1.06 ± 0.01
- ΔG° Gibbs' free energy change ([1]; 303 K): −27.1 kJmol^−1
- KSV Stern-Volmer quenching constant ([1]; 303 K): 2.59 ± 0.51 ×10^4 M^−1
- Kd ([1]; 303 K, double logarithmic approximation, read-out: Ka binding constant (converted)): 21.9 µM
- kq bimolecular quenching rate constant ([1]; 310 K): 4.6e+12 M⁻¹ s⁻¹
- n number of binding sites ([1]; 310 K): 1.05 ± 0.01
- ΔG° Gibbs' free energy change ([1]; 310 K): −27.6 kJmol^−1
- KSV Stern-Volmer quenching constant ([1]; 310 K): 2.75 ± 0.33 ×10^4 M^−1
- Kd ([1]; 310 K, double logarithmic approximation, read-out: Ka binding constant (converted)): 22.8 µM
- Kd ([1]; all temperatures, read-out: Ka binding constant (order of magnitude)): ~100 µM
- decrease of HSA fluorescence emission ([1]; maximum addition of the ligand 2.78 × 10^−5 M, HSA 1.00 × 10^−5 M): about 50%
- ΔH° enthalpy change ([1]; van't Hoff plot, 289–310 K): −5.79 ± 0.27 kJmol^−1
- ΔS° entropy change ([1]; van't Hoff plot, 289–310 K): 7.02 ± 0.09 ×10^−2 kJmol^−1K^−1
- IC50 [2]: 5.22 ± 0.75 µM
